Assay results: publication PMC6158167 (Nature Communications, 2018)

Experiments:
ShHTL7 = molecular target: T1, ShHTL7 (Striga hermonthica, UniProt A0A0M3PNA2); assay: ITC binding to ShHTL7; conditions: 3 mM KAR1 into 150 μM protein
T1 sequence (A0A0M3PNA2 1-271): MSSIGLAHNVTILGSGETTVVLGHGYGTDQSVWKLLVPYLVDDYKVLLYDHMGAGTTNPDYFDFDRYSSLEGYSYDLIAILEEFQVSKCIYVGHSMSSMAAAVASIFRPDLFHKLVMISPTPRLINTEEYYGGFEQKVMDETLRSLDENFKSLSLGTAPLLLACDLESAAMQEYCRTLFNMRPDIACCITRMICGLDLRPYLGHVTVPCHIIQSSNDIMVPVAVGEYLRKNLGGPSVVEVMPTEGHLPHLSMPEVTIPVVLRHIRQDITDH
Experimental: (§1) The binding assays were performed using a MicroCal iTC200 isothermal titration calorimeter (GE Healthcare). Prior to the ITC experiments, concentrated ShD14, ShHTL1, ShHTL4, and ShHTL7 were exchanged into a buffer consisting of 20 mM HEPES (pH 8.0) and 150 mM NaCl to remove dithiothreitol and were then adjusted to a final concentration of 150 μM. The sample cell was filled with protein solution (204 μL). Nineteen consecutive 2.0-μL aliquots of 3 mM KAR1 (3-methyl-2H-furo [2,3-c] pyran-2-one) were injected into a prepared protein solution at 150 s intervals at 20 °C. The first injection volume was 0.4 μL, and the observed thermal peak was excluded from the data analysis. A negative control was obtained by titrating 3 mM KAR1 into the buffer (20 mM HEPES, pH 8.0, 150 mM NaCl) in the same manner. Data fitting was performed in “one set of sites” mode, and KD values were calculated using Origin software provided by MicroCal.
(§2) Supplementary Figure 3. Binding analyses of ShHTLs and ShD14 with KAR1. The ITC
(§3) assays were performed by adding 3 mM KAR1 to 150 μM ShHTL1 (a), ShHTL4 (b), ShHTL7
(§4) (c), ShD14 (d) and AtHTL (e).
(§5) ShHTL1 and AtHTL were fitted using the MicroCal origin software with the “one binding site”
(§6) model. The ITC assays titrating KAR1 into ShHTL1 and AtHTL were repeated three times
(§7) independently (data not shown).

[1] = system: ShHTL3–ShMAX2 interaction; assay: Y2H assay ShHTL3-ShMAX2; type: cell-based, Striga hermonthica; conditions: 5 μM ligand
Excerpt: (§8) Full-length sequences of ShD14, ShHTL1, ShHTL3, ShHTL4, ShHTL7, and AtHTL were cloned into the pGBKT7 vector as bait (Clontech), and the coding regions of ShMAX2 and AtMAX2 were cloned into the pGADT7 vector as prey (Clontech). MAX2 was supposed to be unstable without ASK1. Therefore, AtASK1 was cloned into the N terminus of ShMAX2 and AtMAX2 with a 16-residue linker for co-expression. The bait and prey plasmids were co-transformed into the yeast (Saccharomyces cerevisiae) strain Y2HGold (Clontech) by the lithium acetate-mediated method. The presence of both plasmids was confirmed by growth on SD/-Leu/-Trp (-LT) plates. […] The plates were incubated for 5 days at 30 °C.

AtHTL–AtMAX2 interaction = AtHTL–AtMAX2 interaction (Arabidopsis thaliana, UniProt Q9SZU7); conditions: pull-down, 50 μM ligand, western blotting
Experimental: (§9) and AtHTL were detected using an anti-GST antibody, as indicated by the black arrows. (b)
(§10) 1/10, 1/20, 1/50, 1/100, 1/1000) of transformed yeast cells was plated on control medium (SD/-
(§11) Leu/-Trp; -LT) and selective medium (SD/-Leu/-Trp/-His/-Ade; -LTHA) in the absence or
(§12) (1 picture or pasted object on this page, not shown here)

[2] = system: ShHTL1-AtMAX2 interaction; conditions: Y2H dilution series, 5 μM ligand
Excerpt: as §8, §9, §10, §11, §12

[3] = system: ShHTL1–ShMAX2 interaction; conditions: Y2H dilution series, 5 μM ligand
Excerpt: as §8, §9, §10, §11, §12

Striga = system: Striga; design: method as in doi:10.1016/j.plantsci.2009.06.007, PMID 26228149; conditions: cited from earlier work
ShHTL1 = ShHTL1 (Striga hermonthica, UniProt A0A0M4AV81); assay: ITC binding to ShHTL1; conditions: 3 mM KAR1 into 150 μM protein, 20 °C, means ± SD, n = 3, read-out: dissociation constant (KD) of KAR1 to ShHTL1
Experimental: Binding analyses of ShHTLs and ShD14 with KAR1. The ITC assays were performed by adding 3 mM KAR1 to 150 μM ShHTL1 (a), ShHTL4 (b), ShHTL7
ShHTL1 and AtHTL were fitted using the MicroCal origin software with the “one binding site” model.

ShHTL3 = molecular target: ShHTL3; design: method as in PMID 27507097; conditions: ITC; read-out: KD of KAR1 to ShHTL3; cited from earlier work
ShHTL3 and ShMAX2 = assay: In vitro pull-down ShHTL3-ShMAX2; type: binding, Striga hermonthica; conditions: 50 μM ligand
Experimental: Ni-NTA pull-down assays were performed with purified ShMAX2 or AtMAX2 as the bait and […]14, or GST-AtD14 as the prey. The molecular weight of the HTL/D14 proteins is nearly the same as that of ASK1; therefore, the HTL/D14 proteins were fused to GST, increasing their molecular weight for detection on SDS-PAGE gels. […] The protein complexes were then eluted with 100 μL of elution buffer containing 50 mM Bis-Tris, pH 6.8, 500 mM NaCl, and 500 mM imidazole and subjected to SDS-PAGE analysis.

ShHTL4 = assay: ITC binding to ShHTL4; design: species or system Striga hermonthica; conditions: 3 mM KAR1 into 150 μM protein
Experimental: as §1, §2, §3, §4, §5, §6, §7

ShD14 = assay: ITC binding to ShD14; design: species or system Striga hermonthica; conditions: 3 mM KAR1 into 150 μM protein
Experimental: as §1, §2, §3, §4, §5, §6, §7

Chain of ShHTL1 (A0A0M4AV81 entry or part of it): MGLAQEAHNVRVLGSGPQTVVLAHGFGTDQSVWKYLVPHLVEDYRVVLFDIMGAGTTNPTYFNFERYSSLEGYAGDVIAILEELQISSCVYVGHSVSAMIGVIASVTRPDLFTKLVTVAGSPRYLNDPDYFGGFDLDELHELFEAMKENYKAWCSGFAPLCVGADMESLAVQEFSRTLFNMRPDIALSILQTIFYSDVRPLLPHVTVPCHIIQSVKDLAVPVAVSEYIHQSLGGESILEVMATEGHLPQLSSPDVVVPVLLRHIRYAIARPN
Chain of AtHTL–AtMAX2 interaction (Q9SZU7 whole entry): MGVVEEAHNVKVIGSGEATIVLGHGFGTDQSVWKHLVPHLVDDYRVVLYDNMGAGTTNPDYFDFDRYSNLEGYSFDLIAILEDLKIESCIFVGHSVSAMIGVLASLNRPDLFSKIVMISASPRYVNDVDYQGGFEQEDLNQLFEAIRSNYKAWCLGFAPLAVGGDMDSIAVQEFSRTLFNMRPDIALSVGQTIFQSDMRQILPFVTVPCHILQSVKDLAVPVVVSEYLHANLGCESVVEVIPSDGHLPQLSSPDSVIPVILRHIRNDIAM

Cc1c2ccocc-2oc1=O [KAR1, 3-methyl-2H-furo [2,3-c] pyran-2-one]
KAR1 binding ability of ShHTL7 (ShHTL7): no significant KAR1 binding ability | ligand-induced ShHTL3-ShMAX2 interaction [1]: failed to interact with ShMAX2 in the presence of KAR1 | ligand effect on AtHTL-AtMAX2 interaction (AtHTL–AtMAX2 interaction): did not interact with AtMAX2 in a KAR1-dependent manner | ligand effect on ShHTL1-AtMAX2 interaction [2]: significant difference between the control and the presence of KAR1 or rac-GR24 was not observed | ligand effect on ShHTL1-ShMAX2 interaction [3]: significant difference between the control and the presence of KAR1 or rac-GR24 was not observed | induction of germination of Striga (Striga): fails to induce germination of Striga | Kd (ShHTL1): 77 ± 12 µM | Kd (ShHTL3): 78 ± 3 µM | ShHTL3-ShMAX2 interaction in the presence of ligand (ShHTL3 and ShMAX2): no direct interaction with ShMAX2 in the presence of KAR1 | KAR1 binding ability of ShHTL4 (ShHTL4): no significant KAR1 binding ability | KAR1 binding ability of ShD14 (ShD14): no significant KAR1 binding ability
